# Data reported in patent publication US20250282799A1, “SUBSTITUTED PYRIDO[4,3-d]PYRIMIDINES AS KRAS MODULATORS” (Alterome Therapeutics, Inc., priority 2023, published 2025).
# Test system: KRAS G12V dependent lung adenocarcinoma cell line, NCI-H441
# Test: Cellular pERK (Thr202/Tyr204) FRET/HTRF assay
# Type: cell-based
# Conditions: Homo sapiens, NCI-H441, cellular pERK (Thr202/Tyr204) HTRF, NCI-H441 cells
# In short: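 Phospho-ERK1/2 (Thr202/Tyr204) quantified by two-antibody HTRF in lysed NCI-H441 cells. Cells seeded overnight, treated with test compounds for 1 hr at 37 °C against DMSO control, then lysed and detected at room temperature; IC50 obtained by curve fitting.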
row,IC50,SMILES
1,< 50 nM,"[2H]C([2H])(F)Oc1c(F)c(F)c(F)c2cc(N)cc(-c3ncc4c(N5CCOC[C@H]6[C@H](F)[C@H]65)nc(OC([2H])([2H])[C@@]56CCCN5C[C@H](F)C6)nc4c3F)c12 [Example 128, 6,7,8-trifluoro-4-(8-fluoro-4-((1S,7S,8S)-8-fluoro-5-oxa-2-azabicyclo[5.1.0]octan-2-yl)-2-(((2R,7aS)-2-fluorotetrahydro-1H-pyrrolizin-7a(5H)-yl)methoxy-d2)pyrido[4,3-d]pyrimidin-7-yl)-5-(fluoromethoxy-d2)naphthalen-2-amine]"
2,< 50 nM,"[2H]C1([2H])CC2(CC2)[C@]2(C([2H])([2H])Oc3nc(N4CCOC[C@H]5[C@H](F)[C@H]54)c4cnc(-c5cc(N)cc6ccc(F)c(C#C)c56)c(F)c4n3)C[C@@]([2H])(F)CN12 (single isomer, unassigned) [Example 205]"
3,< 50 nM,"C#Cc1c(F)ccc2cc(N)cc(-c3ncc4c(N5CCOC[C@H]6[C@H](F)[C@H]65)nc(OC[C@@H]5CCCN5C)nc4c3F)c12 [Example 288, 5-ethynyl-6-fluoro-4-(8-fluoro-4-((1S,7S,8S)-8-fluoro-5-oxa-2-azabicyclo[5.1.0]octan-2-yl)-2-(((S)-1-methylpyrrolidin-2-yl)methoxy)pyrido[4,3-d]pyrimidin-7-yl)naphthalen-2-amine]"
4,< 50 nM,"[2H]C1([2H])CC2(CC2)[C@@]2(C([2H])([2H])Oc3nc(N4CCOC[C@H]5[C@H](F)[C@H]54)c4cnc(-c5cc(N)cc6ccc(F)c(C#C)c56)c(F)c4n3)C[C@@]([2H])(F)CN12 (single isomer, unassigned) [Example 202]"
5,< 50 nM,"[2H]C([2H])(Oc1nc(N2CCOC[C@H]3[C@H](Cl)[C@H]32)c2cnc(-c3cc(N)cc4cccc(C#C)c34)c(F)c2n1)[C@@]12CCCN1[C@H](C)[C@H](F)C2 [Example 348, 4-(4-((1S,7S,8S)-8-chloro-5-oxa-2-azabicyclo[5.1.0]octan-2-yl)-8-fluoro-2-(((2R,3R,7aS)-2-fluoro-3-methyltetrahydro-1H-pyrrolizin-7a(5H)-yl)methoxy-d2)pyrido[4,3-d]pyrimidin-7-yl)-5-ethynylnaphthalen-2-amine]"
6,< 50 nM,"C#Cc1c(F)ccc2cc(N)cc(-c3ncc4c(N5CCOC[C@H]6[C@H](F)[C@H]65)nc(OC[C@@]56CCCN5[C@H](C)[C@H](F)C6)nc4c3F)c12 [Example 277, 5-ethynyl-6-fluoro-4-(8-fluoro-2-(((2R,3R,7aS)-2-fluoro-3-methyltetrahydro-1H-pyrrolizin-7a(5H)-yl)methoxy)-4-((1S,7S,8S)-8-fluoro-5-oxa-2-azabicyclo[5.1.0]octan-2-yl)pyrido[4,3-d]pyrimidin-7-yl)naphthalen-2-amine]"
7,< 50 nM,"C#Cc1c(F)ccc2cc(N)cc(-c3ncc4c(N5CCOC[C@H]6[C@H](F)[C@H]65)nc(OC[C@@]56CCCN5C[C@]5(CC5(F)F)C6)nc4c3F)c12 (single isomer, unassigned) [Example 210]"
8,< 50 nM,"C#Cc1c(F)ccc2cccc(-c3ncc4c(N5CCOC[C@H]6[C@H](F)[C@H]65)nc(OC[C@@]56CCCN5C/C(=C\F)C6)nc4c3F)c12 [Example 130, (1S,7S,8S)-2-(7-(8-Ethynyl-7-fluoronaphthalen-1-yl)-8-fluoro-2-(((S,Z)-2-(fluoromethylene)tetrahydro-1H-pyrrolizin-7a(5H)-yl)methoxy)pyrido[4,3-d]pyrimidin-4-yl)-8-fluoro-5-oxa-2-azabicyclo[5.1.0]octane]"
9,< 50 nM,"[2H]C([2H])(Oc1nc(N2CCOC[C@H]3[C@H](F)[C@H]32)c2c(Cl)nc(-c3cc(N)cc4ccc(F)c(C#C)c34)c(F)c2n1)[C@@]12CCCN1C[C@H](F)C2 [Example 291, 4-(5-Chloro-8-fluoro-4-((1S,7S,8S)-8-fluoro-5-oxa-2-azabicyclo[5.1.0]octan-2-yl)-2-(((2R,7aS)-2-fluorotetrahydro-1H-pyrrolizin-7a(5H)-yl)methoxy-d2)pyrido[4,3-d]pyrimidin-7-yl)-5-ethynyl-6-fluoronaphthalen-2-amine]"
10,< 50 nM,"[2H]C([2H])(Oc1nc(N2CCOC[C@H]3[C@H](F)[C@H]32)c2cnc(-c3cc(N)cc4ccc(F)c(C#C)c34)c(F)c2n1)[C@@]12CCCN1C[C@@H](CC#N)C2 (single isomer, unassigned) [Example 314]"

# Same assay, conditions: Homo sapiens, NCI-H441, cellular pERK HTRF, NCI-H441 (KRAS G12V) cells
row,IC50,SMILES
1,< 50 nM,"[2H]C([2H])(Oc1nc(N2CCOC[C@H]3[C@H](F)[C@H]32)c2cnc(-c3cc(N)cc4ccc(F)c(C#C)c34)c(C)c2n1)[C@]12CC(=C)CN1CCC21CC1 [Example 442, 5-Ethynyl-6-fluoro-4-(4-((1S,7S,8S)-8-fluoro-5-oxa-2-azabicyclo[5.1.0]octan-2-yl)-8-methyl-2-(((R)-6′-methylenetetrahydrospiro[cyclopropane-1,1′-pyrrolizin]-7a′(5′H)-yl)methoxy-d2)pyrido[4,3-d]pyrimidin-7-yl)naphthalen-2-amine]"

# Same assay, conditions: Homo sapiens, NCI-H441, pERK HTRF, NCI-H441 cells (KRAS G12V)
row,IC50,SMILES
1,< 50 nM,"[2H]C([2H])(Oc1nc(N2CCCC[C@H]3[C@H](F)[C@H]32)c2cnc(-c3cc(N)cc4cc(F)c(F)c(OCF)c34)c(F)c2n1)[C@@]12CCCN1C[C@H](F)C2 [Example 66, 6,7-Difluoro-4-(8-fluoro-4-((1S,7R,8S)-8-fluoro-2-azabicyclo[5.1.0]octan-2-yl)-2-(((2R,7aS)-2-fluorotetrahydro-1H-pyrrolizin-7a(5H)-yl)methoxy-d2)pyrido[4,3-d]pyrimidin-7-yl)-5-(fluoromethoxy) naphthalen-2-amine]"
2,< 50 nM,"[2H]C1([2H])CCO[C@H]2C[C@H]2N1c1nc(OC([2H])([2H])[C@@]23CCCN2C[C@H](F)C3)nc2c(F)c(-c3cc(N)cc4cc(F)c(F)c(C#C)c34)ncc12 [Example 25, 4-(4-((1S,7R)-2-Oxa-6-azabicyclo[5.1.0]octan-6-yl-5,5-d2)-8-fluoro-2-(((2R,7aS)-2-fluorotetrahydro-1H-pyrrolizin-7a(5H)-yl)methoxy-d2)pyrido[4,3-d]pyrimidin-7-yl)-5-ethynyl-6,7-difluoronaphthalen-2-amine]"
3,< 50 nM,"[2H]C([2H])(Oc1nc(N2CCCCC[C@H]3C[C@H]32)c2cnc(-c3cc(N)cc4cc(F)c(F)c(C#C)c34)c(F)c2n1)[C@@]12CCCN1C[C@H](F)C2 [Example 56, 4-(4-((1R,8S)-2-azabicyclo[6.1.0]nonan-2-yl)-8-fluoro-2-(((2R,7aS)-2-fluorotetrahydro-1H-pyrrolizin-7a(5H)-yl)methoxy-d2)pyrido[4,3-d]pyrimidin-7-yl)-5-ethynyl-6,7-difluoronaphthalen-2-amine]"
4,< 50 nM,"[2H]C([2H])(Oc1nc(N2CCCC[C@H]3[C@H](F)[C@H]32)c2cnc(-c3cccc4ccc(F)c(OCF)c34)c(F)c2n1)[C@@]12CCCN1C[C@H](F)C2 [Example 73, 8-Fluoro-7-(7-fluoro-8-(fluoromethoxy)naphthalen-1-yl)-4-((1S,7R,8S)-8-fluoro-2-azabicyclo[5.1.0]octan-2-yl)-2-(((2R,7aS)-2-fluorotetrahydro-1H-pyrrolizin-7a(5H)-yl)methoxy-d2)pyrido[4,3-d]pyrimidine]"
5,< 50 nM,"[2H]C([2H])([2H])Oc1c(C#N)c(F)cc2cc(N)cc(-c3ncc4c(N5CCCC[C@H]6[C@H](F)[C@H]65)nc(OC([2H])([2H])[C@@]56CCCN5C[C@H](F)C6)nc4c3F)c12 [Example 50, 6-Amino-3-fluoro-8-(8-fluoro-4-((1S,7R,8S)-8-fluoro-2-azabicyclo[5.1.0]octan-2-yl)-2-(((2R,7aS)-2-fluorotetrahydro-1H-pyrrolizin-7a(5H)-yl)methoxy-d2)pyrido[4,3-d]pyrimidin-7-yl)-1-(methoxy-d3)-2-naphthonitrile]"

# Same assay, conditions: cellular pERK (Thr202/Tyr204) HTRF, NCI-H441 cells
row,IC50,SMILES
1,< 50 nM,"[2H]C([2H])(Oc1nc(N2CCOC[C@H]3[C@H](F)[C@H]32)c2cc(C#N)c(-c3cc(N)cc4ccc(F)c(C#C)c34)c(F)c2n1)[C@@]12CCCN1C[C@H](F)C2 [Example 353, 7-(3-Amino-8-ethynyl-7-fluoronaphthalen-1-yl)-8-fluoro-4-((1S,7S,8S)-8-fluoro-5-oxa-2-azabicyclo[5.1.0]octan-2-yl)-2-(((2R,7aS)-2-fluorotetrahydro-1H-pyrrolizin-7a(5H)-yl)methoxy-d2)quinazoline-6-carbonitrile]"
2,< 50 nM,"[2H]C([2H])(Oc1nc(N2CCOC[C@H]3[C@H](F)[C@H]32)c2cc(Cl)c(-c3cc(N)cc4ccc(F)c(C#C)c34)c(F)c2n1)[C@@]12CCCN1C[C@H](F)C2 (atropisomer, axis not shown; (aS)) [Example 359, 4-((R)-6-chloro-8-fluoro-4-((1S,7S,8S)-8-fluoro-5-oxa-2-azabicyclo[5.1.0]octan-2-yl)-2-(((2R,7aS)-2-fluorotetrahydro-1H-pyrrolizin-7a(5H)-yl)methoxy-d2)quinazolin-7-yl)-5-ethynyl-6-fluoronaphthalen-2-amine]"

# Same assay, conditions: cellular pERK HTRF, NCI-H441 (KRAS G12V) cells
row,IC50,SMILES
1,500 to 10000 nM,"[2H]C([2H])(Oc1nc(N2CCOC[C@H]3[C@H](F)[C@H]32)c2cc(F)c(-c3ccc(F)c4sc(N)c(C#N)c34)c(C)c2n1)[C@@]12CCCN1C[C@H](F)C2 (atropisomer, axis not shown; (aS)) [Example 450, 2-amino-7-fluoro-4-((S)-6-fluoro-4-((1S,7S,8S)-8-fluoro-5-oxa-2-azabicyclo[5.1.0]octan-2-yl)-2-(((2R,7aS)-2-fluorotetrahydro-1H-pyrrolizin-7a(5H)-yl)methoxy-d2)-8-methylquinazolin-7-yl)benzo[b]thiophene-3-carbonitrile]"
